Results: article PMC11865548 (Nature Communications, 2025)

Legend:
[1] = target: T1, MexL (Pseudomonas aeruginosa, UniProt Q9HXW2); experiment: thermal shift; assay type: biochemical
T1 sequence (Q9HXW2 1-212): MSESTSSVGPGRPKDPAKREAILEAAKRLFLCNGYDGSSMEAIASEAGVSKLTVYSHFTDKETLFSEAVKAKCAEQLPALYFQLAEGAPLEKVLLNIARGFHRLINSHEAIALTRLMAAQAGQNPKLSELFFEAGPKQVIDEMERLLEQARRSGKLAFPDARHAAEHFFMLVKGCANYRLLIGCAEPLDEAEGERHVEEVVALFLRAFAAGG

[2] = target: T1, MexL; experiment: BLI; assay type: binding

| Structure (SMILES) | thermal shift (Tm decrease) and EMSA interference with DNA binding [1] | Kd [2] |
| --- | --- | --- |
| CN(C)[C@@H]1C(O)=C(C(N)=O)C(=O)[C@@]2(O)C(O)=C3C(=O)c4c(O)cccc4[C@@](C)(O)[C@H]3C[C@@H]12 [TET, tetracycline] | both TET and TCS also significantly reduce the Tm values of MexL (Fig. 6b), indicating their interaction with MexL |  |
| Cn1c2cccc(=O)c-2nc2ccccc21 [PYO, pyocyanin] |  | 84.2 ± 1.8 µM |
| Oc1cc(Cl)ccc1Oc1ccc(Cl)cc1Cl [TCS, triclosan] | these two antimicrobials both can interfere with the DNA-binding activity of MexL in EMSA |  |
